# Measured values: patent US9611276B2, “Imidazo bicyclic iminium compounds as antitumor agents” (THE BOARD OF TRUSTEES OF THE LELAND STANFORD JUNIOR …, priority 2012, dated 2017)
# Like-named read-outs stand apart in the source and are kept apart here.
# Experiments:
# Gli2 [1] = assay: Gli2 trafficking assay in NIH 3T3 cells; format: cell-based; conditions: ShhN treatment
# Method: NIH 3T3 cells were also employed in an assay to quantify Gli2 trafficking NIH-3T3 cells were seeded into 24-well plates containing poly-D-lysine-coated 12-mm glass coverslips (65,000 cells/well) and cultured for 24 hrs. […] Each compound or vehicle treatment was conducted in biological triplicates in the presence or absence of 10% (v/v) ShhN-conditioned medium. The cells were subsequently fixed in PBS containing 4% (v/v) paraformaldehyde for 12 min at room temperature, washed three times with PBS, permeabilized in PBS containing 0.5% (v/v) Triton X-100 for 5 min, and washed again twice in PBS. […] After three PBS washes, the coverslips were mounted onto slides using Prolong Gold Antifade Reagent with DAPI (Invitrogen, P36931). The cells were imaged using a Plan Apochromat 63×/1.4-0.6 oil immersion objective on an upright Leica DM4500B compound microscope. Ciliary Gli2 levels were quantified by determining total pixel intensity within a circular region manually placed at the distal end of each cilium and subtracting background fluorescence in an adjacent region of equivalent size. A total of 30 cilia from three coverslips were analyzed to determine the average ciliary Gli2 level for each experimental condition as a measure of Gli2 trafficking.
# [2] = test system: endogenous Hh target gene expression (Gli1 mRNA); assay: Gli1 mRNA levels in NIH-3T3 cells with ShhN; format: cell-based
# Method: NIH-3T3 cells were obtained from ATCC and cultured in DMEM (Invitrogen, 11965) containing 10% (v/v) calf serum (ATCC, 30-2030), 1 mM sodium pyruvate (Invitrogen, 11360) and 1× PenStrep (Gibco, 15140).
# (§1) All test compounds were dissolved in DMSO at 50 mM, serially diluted by 1:3, 1:4 or 1:5 in a 96-well translucent microplate (Greiner bio-one, 650201) and stored at −20° C. These serial dilutions were added to assay media freshly with final DMSO concentration of 0.2% (v/v).
# Quantification of Gli1 mRNA levels in NIH-3T3 cells provides a measure of endogenous Hh target gene expression. NIH 3T3 cells were seeded into 96-well plates (36,000 cells/well), cultured to confluency for 24 hrs and then incubated with test compounds in DMEM (Invitrogen, 11965) containing 0.5% (v/v) calf serum (ATCC, 30-2030), 1 mM sodium pyruvate (Invitrogen, 11360), 1× PenStrep (Gibco, 15140) and 10% (v/v) ShhN-conditioned medium for 24 hrs. The cells were lysed and the lysate was used to prepare cDNA using a Cells-to-CT kit (Ambion) according to the manufacturer's protocols. The cDNA was then quantified with Gli1 and GAPDH Taqman probes (Mm00494645m1 and Mm99999914g1, Applied Biosystems) on a Roche Lightcycler 480, using the 2nd derivative/maximum method to obtain Ct values. Biological triplicates were analyzed for each test compounds.
# Gli2 [3] = target: Gli2 (Homo sapiens, UniProt P10070); assay: Overexpression of Gli2 in Gli1 null cells, firefly luciferase reporter; format: cell-based, mouse; set-up: expressed in transfected cells; host or cells: Gli1-/- immortalized mouse embryonic fibroblasts
# Sequence of Gli2 (Homo sapiens, UniProt P10070) (P10070 whole entry, species assumed): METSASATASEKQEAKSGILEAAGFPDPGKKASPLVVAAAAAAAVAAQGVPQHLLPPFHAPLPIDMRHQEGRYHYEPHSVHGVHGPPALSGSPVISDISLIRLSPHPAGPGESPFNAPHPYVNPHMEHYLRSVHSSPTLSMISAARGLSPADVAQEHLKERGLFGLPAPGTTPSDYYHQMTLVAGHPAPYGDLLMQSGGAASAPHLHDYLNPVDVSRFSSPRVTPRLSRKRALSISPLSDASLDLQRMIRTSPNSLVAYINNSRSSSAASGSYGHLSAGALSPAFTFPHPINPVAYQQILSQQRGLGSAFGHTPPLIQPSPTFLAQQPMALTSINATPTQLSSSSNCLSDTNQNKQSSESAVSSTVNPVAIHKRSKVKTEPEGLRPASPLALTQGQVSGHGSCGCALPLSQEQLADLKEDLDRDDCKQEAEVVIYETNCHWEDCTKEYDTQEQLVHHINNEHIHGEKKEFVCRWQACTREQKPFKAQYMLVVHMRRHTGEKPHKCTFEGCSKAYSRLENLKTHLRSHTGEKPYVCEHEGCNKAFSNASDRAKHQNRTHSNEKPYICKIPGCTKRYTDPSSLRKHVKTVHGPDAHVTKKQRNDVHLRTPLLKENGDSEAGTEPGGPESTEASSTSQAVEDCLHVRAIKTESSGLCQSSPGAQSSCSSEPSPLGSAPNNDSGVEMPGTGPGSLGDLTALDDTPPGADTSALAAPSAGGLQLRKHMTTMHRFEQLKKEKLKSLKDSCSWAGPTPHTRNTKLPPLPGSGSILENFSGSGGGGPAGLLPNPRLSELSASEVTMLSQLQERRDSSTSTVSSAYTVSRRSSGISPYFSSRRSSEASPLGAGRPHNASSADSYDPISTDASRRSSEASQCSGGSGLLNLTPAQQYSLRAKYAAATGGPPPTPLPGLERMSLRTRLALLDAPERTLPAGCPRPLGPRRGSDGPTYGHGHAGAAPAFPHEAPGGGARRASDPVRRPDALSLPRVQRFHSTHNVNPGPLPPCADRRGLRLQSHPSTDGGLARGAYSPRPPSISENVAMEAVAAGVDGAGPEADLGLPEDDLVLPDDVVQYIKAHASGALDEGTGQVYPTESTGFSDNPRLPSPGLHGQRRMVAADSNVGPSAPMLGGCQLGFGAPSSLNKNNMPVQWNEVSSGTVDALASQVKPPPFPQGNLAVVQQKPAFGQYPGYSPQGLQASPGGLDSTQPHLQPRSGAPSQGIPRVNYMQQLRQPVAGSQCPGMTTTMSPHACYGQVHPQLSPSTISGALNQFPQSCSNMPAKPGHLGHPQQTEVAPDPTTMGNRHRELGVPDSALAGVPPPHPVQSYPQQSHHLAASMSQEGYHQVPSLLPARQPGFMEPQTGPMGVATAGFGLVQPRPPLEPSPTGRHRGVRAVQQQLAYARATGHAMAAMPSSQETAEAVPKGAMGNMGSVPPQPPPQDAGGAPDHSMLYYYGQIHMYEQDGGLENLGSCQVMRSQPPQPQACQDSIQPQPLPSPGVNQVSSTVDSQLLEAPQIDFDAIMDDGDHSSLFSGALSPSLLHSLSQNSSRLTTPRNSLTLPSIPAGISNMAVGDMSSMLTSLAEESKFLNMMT
# Method: Gli1 null cells [see Lipinski et al. BMC Cell Biol. 2008; 9:49], an immortalized mouse embryonic fibroblast cell line lacking the Gli1 gene, were cultured in DMEM (Invitrogen, 11965) containing 10% (v/v) calf serum (ATCC, 30-2030), 1 mM sodium pyruvate (Invitrogen, 11360), 1× PenStrep (Gibco, 15140) and 1×MEM non-essential amino acids solution (11140, Invitrogen).
# as §1
# Overexpression of Gli2 in Gli1 null cells provides a measure of Gli2-induced pathway activity. pcDNA-derived Gli2 expression vectors (200 ng/well) and a 1:19 mixture (total 200 ng/well) of constitutive Renilla luciferase reporter (pRLTK, Promega) and firefly luciferase reporter (8XGliBS-FL) were mixed with FuGene HD transfection reagent (1.2 μL/well, Promega, E2311) in Opti-MEM Reduced-Serum Medium with GLutaMAX (Invitrogene, 51985) at a total volume of 25 μL/well. […] The cells were lysed with passive lysis buffer (200 μL/well), and 10 μL of the obtained lysate were analyzed for firefly and Renilla luciferase activities using Dual-Luciferase Reporter Assay System (Promega, E1960) (50 μL/well of each reagent) on a microplate luminometer (Veritas). […]
# Hh pathway activity = assay: Sufu-KO-LIGHT cell assay, Gli-dependent firefly luciferase reporter; format: cell-based, mouse; conditions: for IC50: Mus musculus
# Method: Sufu-KO-LIGHT cells were derived from Sufu knockout mouse embryonic fibroblasts according to the method of Chen et al. [Genes Dev. 2009; 23(16):1910-28.] The cells were co-transfected with the zeocin resistance vector (pVgRXR, Invitrogen) and a firefly luciferase reporter driven by eight Gli binding sites and a γ-crystallin basal promoter (8XGliBS-FL) [see Sasaki et al. Development. 1997; 124(7):1313-22.2]. […] Sufu-KO-LIGHT cells were cultured in DMEM (Invitrogen, 11965) containing 10% (v/v) fetal bovine serum (Invitrogen, No. 26140), 150 μg/mL zeocin (Invitrogen, R250-01), 1 mM sodium pyruvate (Invitrogen, 11360) and 1× PenStrep (Gibco, 15140).
# as §1
# The Sufu-KO-LIGHT cell assay provides a measure of Hh pathway activity and cytotoxicity. Sufu-KO-LIGHT cells were seeded into a 96-well plate (35,000 cells/well), cultured to confluency for 24 hrs and then incubated with test compounds in DMEM without phenol red (Invitrogen, 26140) containing 0.5% (v/v) fetal bovine serum (Invitrogen, No. 26140), 150 μg/mL zeocin (Invitrogen, R250-01), 1 mM sodium pyruvate (Invitrogen, 11360), 1× PenStrep (Gibco, 15140) for 16 hrs. Bright Glo (Promega, E2620) reagent (50 μL/well) was added to the cells, and luciferase activities were determined on a microplate luminometer (Veritas). To assess cytotoxicity, after 15 hrs of incubation with test compounds, CellTiter 96 AQueous One Solution Cell Proliferation Assay (Promega, G3580) reagent (20 μL/well) was added. Cell viability was determined by measuring absorption at 490 nm after 1 hr of incubation on a microplate spectrophotometer (Benchmark Plus, Bio-Rad). Biological triplicates were analyzed for each test compounds.
structure (smiles),measurement,setting,value
CCOc1ccc(-[n+]2cc(-c3ccc(Br)cc3)n3c2CCCCC3)cc1 [Compound A-1],Effect on ShhN-induced Gli2 accrual at the ciliary distal tip,Gli2 [1],did not inhibit this process
same,ShhN-dependent expression of endogenous target genes (Gli1),[2],inhibited
same,IC50,"[2]; Mus musculus, NIH3T3, NIH-3T3 w/ ShhN",5000 nM
same,Gli2-induced Hh reporter expression in cells lacking Gli1,Gli2 [3],not able to inhibit
same,"IC50, firefly luciferase",Gli2 [3]; Gli2-overexpressing Gli1-/-,No inhibition
same,IC50,Hh pathway activity,1420 ± 960 nM
same,IC50,"Hh pathway activity; read-out: IC50, firefly luciferase",1420 ± 960 nM
same,Inhibition of Hh pathway activity,Hh pathway activity; Sufu-KO-LIGHT cells,inhibits Hh pathway activity
